Test results published in patent US20100105948A1, “HOP ALPHA ACID OR HOP OIL CONTENT ENHANCER” (COSMO OIL CO., LTD., priority 2007, published 2010).

Assays:
[1] = system: hop (Zatecky poloskory cervenak); assay: Foliar treatment of hop seedlings (Example 1): contents of alpha acid, beta acid, hop oils; dry weight; type: in vivo; conditions: for (Reference) Dry weight / Beta acid (%) / Hop oil myrcene / Hop oil pharnesene / Alpha acid (%) / (Reference) Dry weight, ratio to no treatment / Alpha acid (ratio to no treatment) / Beta acid (ratio to no treatment) / Hop oil myrcene (ratio to no treatment) / Hop oil pharnesene (ratio to no treatment): foliar treatment 5 times; for Alpha acid (%): Zatecky poloskory cervenak; for (Reference) Dry weight, ratio to no treatment / Alpha acid (ratio to no treatment) / Beta acid (ratio to no treatment) / Hop oil myrcene (ratio to no treatment) / Hop oil pharnesene (ratio to no treatment): no treatment = 100
Text: Seedlings of Zatecky poloskory cervenak cultivated by conventional method in Slovakia in 2006 were subjected to foliar treatment at timing shown in Table 1 with an aqueous 5-aminolevulinic acid (ALA) hydrochloride solution shown in Table 2.

[2] = system: hop (high alpha acid type Marynka species); assay: Foliar treatment of hop seedlings (Example 2): alpha acid content; yield; type: in vivo; conditions: for Alpha acid (%): Marynka; for (Reference) Yield (ratio to no treatment %) / Alpha acid (ratio to no treatment): no treatment = 100
Text: Seedlings of a high alpha acid type Marynka species cultivated by conventional method in Poland in 2006 were subjected to foliar treatment at timing shown in Table 4 with an aqueous ALA hydrochloride solution the same as in Example 1.

[3] = Treatment 1 (basal fertilizer 30% up): 0.05%, 1000 L/ha, 6 times
[4] = Treatment 1: 0.05%, 1000 L/ha, 6 times
[5] = Treatment 2: 0.05%, 1000, 2000, 3000 L/ha at 1st, 3rd, 5th time

Structure (SMILES): NCC(=O)CCC(=O)O [ALA, 5-aminolevulinic acid]
- contents of an alpha acid, a beta acid, and hop oils ([1]; ALA treatment versus no treatment, Table 3, in words): remarkably increased
- (Reference) Dry weight ([1]; 0.02%, 2500 L/ha): 1.76 t/ha
- Beta acid (%) ([1]; 0.02%, 2500 L/ha): 4.62%
- Hop oil myrcene ([1]; 0.02%, 2500 L/ha): 51.6
- Hop oil pharnesene ([1]; 0.02%, 2500 L/ha): 19.9
- Alpha acid (%) ([1]; 0.02%, 2500 L/ha): 3.26%
- (Reference) Dry weight, ratio to no treatment ([1]; 0.02%, 2500 L/ha): 125%
- Alpha acid (ratio to no treatment) ([1]; 0.02%, 2500 L/ha): 127
- Beta acid (ratio to no treatment) ([1]; 0.02%, 2500 L/ha): 105
- Hop oil myrcene (ratio to no treatment) ([1]; 0.02%, 2500 L/ha): 149
- Hop oil pharnesene (ratio to no treatment) ([1]; 0.02%, 2500 L/ha): 121
- (Reference) Dry weight ([1]; 0.1%, 500 L/ha): 1.44 t/ha
- Beta acid (%) ([1]; 0.1%, 500 L/ha): 4.95%
- Hop oil myrcene ([1]; 0.1%, 500 L/ha): 57.0
- Hop oil pharnesene ([1]; 0.1%, 500 L/ha): 17.6
- Alpha acid (%) ([1]; 0.1%, 500 L/ha): 3.11%
- (Reference) Dry weight, ratio to no treatment ([1]; 0.1%, 500 L/ha): 103%
- Alpha acid (ratio to no treatment) ([1]; 0.1%, 500 L/ha): 121
- Beta acid (ratio to no treatment) ([1]; 0.1%, 500 L/ha): 113
- Hop oil myrcene (ratio to no treatment) ([1]; 0.1%, 500 L/ha): 164
- Hop oil pharnesene (ratio to no treatment) ([1]; 0.1%, 500 L/ha): 107
- content of an alpha acid ([2]; ALA treatment versus no treatment, Table 5, in words): remarkably increased
- (Reference) Yield (kg/ha) [2, 3]: 1610 kg/ha
- Alpha acid (%) [2, 3]: 6.98%
- (Reference) Yield (ratio to no treatment %) [2, 3]: (104) %
- Alpha acid (ratio to no treatment) [2, 3]: (104)
- (Reference) Yield (kg/ha) [2, 4]: 1609 kg/ha
- Alpha acid (%) [2, 4]: 6.82%
- (Reference) Yield (ratio to no treatment %) [2, 4]: (104) %
- Alpha acid (ratio to no treatment) [2, 4]: (102)
- (Reference) Yield (kg/ha) [2, 5]: 1610 kg/ha
- Alpha acid (%) [2, 5]: 6.95%
- (Reference) Yield (ratio to no treatment %) [2, 5]: (104) %
- Alpha acid (ratio to no treatment) [2, 5]: (104)
